Data: patent EP4603105A1, “PHARMACEUTICAL COMPOSITION CONTAINING CYCLIC COMPOUND HAVING SELECTIVE KRAS INHIBITORY EFFECT AGAINST HRAS AND NRAS” (CHUGAI SEIYAKU KABUSHIKI KAISHA, priority 2022, dated 2024)
pIC50: −log10 of the molar value. *1 amine or outer side, *2 acyl side, *3 side chain or, on linkers, in order; H or OH if unused. Where a SMILES comes first, the peptide text is derived from it. Bridges are numbered along the chain shown (N, C = ends). [ ]: non-standard residue; d: D form. The star is where a group is joined. hPhe(3-Cl-4-CF3) = N[C@@H](CCc1ccc(C(F)(F)F)c(Cl)c1)C(=O)O; X51 = CCCN([C@@H](Cc1ccc(OC(F)(F)F)cc1)C(=O)[*:2])[*:1]; NPrPhe(4-CF3) = CCCN[C@@H](Cc1ccc(C(F)(F)F)cc1)C(=O)O; X44 = Cc1ccc(C[C@@H](C(=O)[*:2])N(CC2CCC2)[*:1])cc1; NMeGly(cPent) = CN[C@H](C(=O)O)C1CCCC1; Pro(4S-Me) = C[C@@H]1CN[C@H](C(=O)O)C1; NMeD = CN[C@@H](CC(=O)O)C(=O)O; NMeL = CN[C@@H](CC(C)C)C(=O)O; Morpholide = C1CN(*)CCO1; NMeA = CN[C@@H](C)C(=O)O; Ac5c = NC1(C(=O)O)CCCC1; Aze = O=C(O)[C@@H]1CCN1; NEtG = CCNCC(=O)O; Sar = CNCC(=O)O

Columns and labels:
[1] = system: human lung cancer strain NCI-H441; assay type: cell-based
Description: A test compound was dispensed into a U-bottom 384-well plate as 40 nL serially diluted dimethyl sulfoxide solutions using a liquid handler Echo (LABCYTE). […] This cell suspension was dispensed in an amount of 40 µL per well into a plate containing the test compound, and cultured at 37°C in a 5% carbon dioxide gas incubator. Four days later, 20 µL of CellTiter-Glo (registered trademark) (Promega) was added to each well and […] was measured. […]

[2] = biological target: HRAS wild-type protein (Homo sapiens, UniProt P01112); assay: Binding to HRAS by surface plasmon resonance (SPR), KD and KD ratio to KRAS
Sequence of HRAS wild-type protein (P01112 whole entry): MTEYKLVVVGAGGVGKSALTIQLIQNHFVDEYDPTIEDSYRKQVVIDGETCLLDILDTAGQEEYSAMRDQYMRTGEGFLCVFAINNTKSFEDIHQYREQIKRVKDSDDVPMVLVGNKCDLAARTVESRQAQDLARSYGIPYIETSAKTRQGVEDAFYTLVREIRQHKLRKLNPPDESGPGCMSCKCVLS
Description: Surface plasmon resonance was used to analyze the binding affinity of compounds for KRAS, NRAS, and HRAS. The apparatus used was Biacore 8K, 8K+, or T200 (GE Healthcare), and the running buffer used was HBS (10 mM HEPES-NaOH, 150 mM NaCl, pH 7.4) containing 1 mM DTT, 10 mM MgCl2, 0.01% Tween 20, 10 µM GDP, and 4% DMSO.
Biotinylated Avi-tag fusion KRAS, NRAS, and HRAS proteins were expressed in E. coli BL21 (DE3) strains, and after cells were homogenized, they were purified using Streptavidin Mutein Matrix and Superdex 75. After purification, GDP-loaded KRAS, NRAS, and HRAS proteins were immobilized on the surface of Sensor Chip CAP (Cytiva) coated with Biotin CAPture Reagent in an immobilization amount of about 100 to 300 RU. Binding of each compound was evaluated by the Single Cycle Kinetics method, and a running buffer or a compound solution was added to the RAS protein non-immobilized surface and the immobilized surface to obtain a binding response. The flow rate was set to 100 µL/min, and in the compound-adding cycle, compound solutions having different concentrations were intermittently added for 75 seconds each, starting from a low concentration. […] In the blank cycle, a running buffer was intermittently added and not the compound solution. The Biotin CAPture Reagent and RAS proteins were immobilized for each cycle, and at the end of each cycle, the sensor chip was regenerated by the regeneration solution appended to the Biotin CAPture Kit (Cytiva). Measurement was carried out at 30°C.
The resulting sensorgram was subjected to curve fitting based on a 1:1 binding model on Biacore Insight Evaluation Software or T200 Evaluation Software, and thereby the dissociation constant KD of each compound with respect to KRAS, NRAS, and HRAS was determined. […] Blank indicates a compound from which the KD value with respect to NRAS or HRAS was not obtained.

[3] = ratio of KD for HRAS wild-type protein to KD for KRAS

Row | Structure (SMILES) | pIC50 [1] | further results
1 | CCC[C@H]1C(=O)N[C@@H]([C@@H](C)CC)C(=O)N(C)CC(=O)N(C)[C@H]2C/C=C\CCN(C2=O)[C@@H](Cc2ccc(C)cc2)C(=O)N(C)CC(=O)N[C@@H](CCc2ccc(Cl)c(OC)c2)C(=O)N2C[C@H](OCC)C[C@H]2C(=O)NC2(CC(C)(C)C2)C(=O)N(C)[C@@H](C(CC)CC)C(=O)N(C)[C@H](C(=O)N(C)C)CC(=O)N1C [PP2791] | 7.05 | HRAS /KRAS [2, 3]: A (a compound having 10 or more and less than 20 is denoted as A)
2 | CCO[C@@H]1C[C@H]2C(=O)NC3(CCC3)C(=O)N(C)[C@@H](C(CC)CC)C(=O)N3CCC[C@@H]3CC(=O)N(C)[C@@H](CC)C(=O)N[C@@H]([C@@H](C)CC)C(=O)N(C)CC(=O)N(C)[C@H]3C/C=C\CCN(C3=O)[C@@H](Cc3ccc(C(F)(F)F)cc3)C(=O)N(C)CC(=O)N[C@@H](CCc3cc(F)c(C(F)(F)F)c(F)c3)C(=O)N2C1 [PP1607] | 7.41 | HRAS /KRAS ([2]; ratio of KD value for HRAS wild-type protein to KD value for KRAS (SPR)): A (a compound having 10 or more and less than 20 is denoted as A)
3 | CCO[C@@H]1C[C@H]2C(=O)NC3(CC(C)(C)C3)C(=O)N(C)[C@@H](C3CCCC3)C(=O)N(C)[C@H](C(=O)N(C)CC)CC(=O)N(C)[C@@H](C3CCC3)C(=O)N[C@@H]([C@@H](C)CC)C(=O)N(C)CC(=O)N(C)[C@H]3C/C=C\CCN(C3=O)[C@@H](Cc3ccc(C(F)(F)F)cc3)C(=O)N(C)CC(=O)N[C@@H](CCc3ccc(C(F)(F)F)c(OC)c3)C(=O)N2C1 [PP1985] | 7.75 | HRAS /KRAS ([2]; ratio of the KD value with respect to HRAS wild-type protein to the KD value with respect to KRAS): B (a compound having 3 or more and less than 10 is denoted as B)
4 | CCO[C@@H]1C[C@H]2C(=O)NC3(CC(C)(C)C3)C(=O)N(C)[C@@H](C3CCCC3)C(=O)N(C)[C@H](C(=O)N(C)C)CC(=O)N(C)[C@H]3CCCCCCc4ccc(cc4)C[C@@H](C(=O)N(C)CC(=O)N[C@@H](CCc4ccc(C(F)(F)F)c(OC)c4)C(=O)N2C1)N1CC/C=C\C[C@@H](C1=O)N(C)C(=O)CN(C1CC1)C(=O)[C@H]([C@@H](C)CC)NC3=O [PP3070] | 8.85 | HRAS /KRAS [2, 3]: B (a compound having 3 or more and less than 10 is denoted as B)
5 | CC[C@H](C)[C@@H]1NC(=O)[C@H](CC(C)C)N(C)C(=O)C[C@@H](C(=O)N2CCOCC2)N(C)C(=O)[C@H](C2CCCC2)N(C)C(=O)C2(CCCC2)NC(=O)[C@@H]2CCCN2C(=O)[C@H](CCc2ccc(C(F)(F)F)c(Cl)c2)NC(=O)CN(C)C(=O)[C@H](Cc2ccc(C)cc2)N(CC2CCC2)C(=O)[C@@H]2CCN2C(=O)[C@H](C)N(C)C1=O [PP0083] ([NMeL]I[NMeA][Aze][X44][Sar][hPhe(3-Cl-4-CF3)]P[Ac5c][NMeGly(cPent)][NMeD]-Morpholide; lactam N-11) | 7.95 | 
6 | C#CCN1CC(=O)N(C)[C@H]2C/C=C\CCN(C2=O)[C@@H](Cc2ccc(C)cc2)C(=O)N(C)CC(=O)N[C@@H](CCc2ccc(C(F)(F)F)c(OC)c2)C(=O)N2C[C@H](OCC)C[C@H]2C(=O)NC2(CC(C)(C)C2)C(=O)N(C)[C@@H](C2CCCC2)C(=O)N(C)[C@H](C(=O)N(C)C)CC(=O)N(C)[C@@H](CC(C)C)C(=O)N[C@@H]([C@@H](C)CC)C1=O [PP2060] | 8.13 | 
7 | CCCN1C(=O)CN(C)C(=O)CN(C)C(=O)[C@H]([C@@H](C)CC)NC(=O)[C@H](CC(C)C)N(C)C(=O)C[C@@H](C(=O)N2CCOCC2)N(C)C(=O)[C@H](C2CCCC2)N(C)C(=O)C2(CCCC2)NC(=O)[C@H](C)NC(=O)[C@H](CCc2ccc(C(F)(F)F)c(Cl)c2)NC(=O)CN(C)C(=O)[C@@H]1Cc1ccc(C(F)(F)F)cc1 [PP1914] ([NMeL]I[Sar][Sar][NPrPhe(4-CF3)][Sar][hPhe(3-Cl-4-CF3)]A[Ac5c][NMeGly(cPent)][NMeD]-Morpholide; lactam N-11) | 7.40 | 
8 | CC[C@H](C)[C@@H]1NC(=O)[C@H](CC)N(C)C(=O)C[C@@H](C(=O)N(C)CC)N(C)C(=O)[C@H](C2CCCC2)N(C)C(=O)C2(CC(C)(C)C2)NC(=O)[C@@H]2C[C@@H](C)CN2C(=O)[C@H](CCc2cc(F)c(C(F)(F)F)c(F)c2)NC(=O)CN(C)C(=O)[C@H](Cc2ccc(C)cc2)N2CC/C=C\C[C@@H](C2=O)N(C)C(=O)CN(C)C1=O [PP1884] | 7.76 | 
9 | CC[C@H](C)[C@@H]1NC(=O)[C@H](CC(C)C)N(C)C(=O)CSC[C@H](C(=O)N(C)C)N(C)C(=O)[C@H](C2CCCC2)N(C)C(=O)C2(CCCC2)NC(=O)[C@@H]2CCCN2C(=O)[C@H](CCc2cc(F)c(C(F)(F)F)c(F)c2)NC(=O)CN(C)C(=O)[C@H](Cc2ccc(C(F)(F)F)cc2)N2CC/C=C\C[C@@H](C2=O)N(C)C(=O)CN(C)C1=O [PP3109] | 5.47 | 
10 | CCCN1C(=O)CN(C)C(=O)CN(C)C(=O)[C@H]([C@@H](C)CC)NC(=O)[C@H](CC(C)C)N(C)C(=O)C[C@@H](C(=O)N2CCOCC2)N(C)C(=O)[C@H](C2CCCC2)N(C)C(=O)C2(CCCC2)NC(=O)[C@@H]2CCCN2C(=O)[C@H](CCc2ccc(C(F)(F)F)c(Cl)c2)NC(=O)CN(C)C(=O)[C@@H]1Cc1ccc(OC(F)(F)F)cc1 [PP0137] ([NMeL]I[Sar][Sar][X51][Sar][hPhe(3-Cl-4-CF3)]P[Ac5c][NMeGly(cPent)][NMeD]-Morpholide; lactam N-11) | 7.87 | 
11 | CCCN1C(=O)CN(C)C(=O)CN(CC)C(=O)[C@H]([C@@H](C)CC)NC(=O)[C@H](CC(C)C)N(C)C(=O)C[C@@H](C(=O)N2CCOCC2)N(C)C(=O)[C@H](C2CCCC2)N(C)C(=O)C2(CCCC2)NC(=O)[C@@H]2C[C@H](C)CN2C(=O)[C@H](CCc2ccc(C(F)(F)F)c(Cl)c2)NC(=O)CN(C)C(=O)[C@@H]1Cc1ccc(C(F)(F)F)cc1 [PP0451] ([NMeL]I[NEtG][Sar][NPrPhe(4-CF3)][Sar][hPhe(3-Cl-4-CF3)][Pro(4S-Me)][Ac5c][NMeGly(cPent)][NMeD]-Morpholide; lactam N-11) | 7.95 | 
12 | CCO[C@@H]1C[C@H]2C(=O)NC3(CC(C)(C)C3)C(=O)N(C)[C@@H](C3CCCC3)C(=O)N(C)[C@H](C(=O)N(C)CC)CC(=O)N(C)[C@@H]([C@@H](C)OC)C(=O)N[C@@H]([C@@H](C)CC)C(=O)N(C)CC(=O)N(C)[C@H]3C/C=C\CCN(C3=O)[C@@H](Cc3ccc(C(F)(F)F)cc3)C(=O)N(C)CC(=O)N[C@@H](CCc3ccc(C(F)(F)F)c(Cl)c3)C(=O)N2C1 [PP3162] | 8.02 | 
13 | CC[C@H](C)[C@@H]1NC(=O)[C@H](CC2CC2)N(C)C(=O)C[C@@H](C(=O)N(C)CC)N(C)C(=O)[C@H](C2CCCC2)N(C)C(=O)C2(CCC2)NC(=O)[C@@H]2C[C@H](C)CN2C(=O)[C@H](CCc2ccc(C(F)(F)F)c(OC)c2)NC(=O)CN(C)C(=O)[C@H](Cc2ccc(C)cc2)N2CC/C=C\C[C@@H](C2=O)N(C)C(=O)CN(C)C1=O [PP1897] | 7.65 | 
14 | CCCN(C)C(=O)[C@@H]1CC(=O)N(C)[C@@H](COCC)C(=O)N[C@@H]([C@@H](C)CC)C(=O)N(C)CC(=O)N(C)[C@H]2C/C=C\CCN(C2=O)[C@@H](Cc2ccc(C(F)(F)F)cc2)C(=O)N(C)CC(=O)N[C@@H](CCc2cc(F)c(C(F)(F)F)c(F)c2)C(=O)N2C[C@@H](C)C[C@H]2C(=O)NC2(CCC2)C(=O)N(C)[C@@H](C2CCCC2)C(=O)N1C [PP2002] | 7.80 | 
15 | CC[C@H](C)[C@@H]1NC(=O)[C@H](CC(F)F)N(C)C(=O)C[C@@H](C(=O)N(C)C)N(C)C(=O)[C@H](C2CCCC2)N(C)C(=O)C2(CC(C)(C)C2)NC(=O)[C@@H]2C[C@@H](C)CN2C(=O)[C@H](CCc2ccc(C(F)(F)F)c(OC)c2)NC(=O)CN(C)C(=O)[C@H](Cc2ccc(C)cc2)N2CC/C=C\C[C@@H](C2=O)N(C)C(=O)CN(C)C1=O [PP1877] | 7.74 | 
